# Experimental data as given in US20240335395A1, “COMPOSITIONS AND METHODS FOR PREVENTING AND/OR TREATING DISEASE ASSOCIATED WITH IL-23 EXPRESSION” (ALLSPIM, priority 2021, published 2024).
# Columns and labels:
# IL-23 gene (IL-23p19) = assay: IL-23 gene expression (RT-qPCR) in LPS-stimulated THP-1 cell culture; assay type: cell-based, human; conditions: THP-1, LPS 10 ng/ml, 2 h
# Description: The THP-1 cell line (TIB-202) was obtained from the American Type Culture Collection (ATCC, USA), grown in RPMI 1640 culture medium (Gibco) supplemented with 10% fetal bovine serum (Gibco, UK), 50 U/mL penicillin-streptomycin (Gibco), and 0.05 mM 2-Mercaptoethanol (Gibco). Cultured cells were plated into culture plates in appropriate volumes with a cell density of 500,000 cells/mL.
# At two hours after stimulation with LPS (10 ng/ml) in the presence or not of 2,4-D at increasing concentrations, THP-1 cells from each experimental condition were directly lysed using TRIzol reagent (Invitrogen, USA) followed by RNA extraction according to the manufacturer's instructions. Finally, RNA was dissolved in 10 μL diethyl pyrocarbonate (DEPC)-treated water, quantified on a NanoDrop 2000 spectrophotometer (Thermo Scientific Inc., USA), and reverse-transcribed using the Super Script III First-Strand Synthesis System for RT-PCR kit (Thermo Scientific, USA) according to the manufacturer's instructions.
# PCR was performed in duplicate using SYBR Green qPCR master mix (Takara Biomedical Technology Co., Ltd, Dalian, China) on an ABI 7500 Real-Time PCR System (Thermo, USA). […] The ΔΔCT method was used to quantify relative mRNA levels as described in User Bulletin #2 for the ABI PRISM 7700 Sequence Detection System (Applied Biosystems, 2001). […]
# IL-23 [1] = assay: IL-23 production (ELISA) in LPS-stimulated THP-1 cells, 2,4-D versus other chalcones, Example 2; assay type: cell-based, human; conditions: LPS-stimulated THP-1
# Description: Molecules tested. Natural 2,4-D, isolated and purified from Chloranthus spicatus (purity HPLC≥98%, Cat. No.: 129742-43-2), was purchased from BOC Science (Shirley, NY). Synthetic 2,4-D (purity HPLC≥98%) was obtained from YIWEI Biotech (Shanghai, China). 2′-hydroxychalcone (2′-HC, purity HPLC≥98%, Cat. No.: 42224-53-3), 4-hydroxychlcone (4-HC, purity HPLC≥98%, Cat. No.: 20426-12-4), 2′,2-dihydroxychalcone (2′,2-DHC, purity HPLC≥98%, Cat. No.: IDF00045_ALDRICH), 2′,3-dihydroxychalcone (2′,3-DHC, purity HPLC≥98%, Cat No.: IDF00047_ALDRICH), 2′,4-dihydroxychalcone (2′,4-DHC, purity HPLC≥98%, Cat. No.: PH011685_ALDRICH), 2′,5′-dihydroxychalcone (2′,5′-DHC, purity HPLC≥98%, No.: IDF00046-1G), and 2′,4′,4-trihydroxychalcone (2′,4′4-THC, purity HPLC≥98%, No.: 38986_SIAL) were purchased from Sigma. 2′,4′-dihydroxychalcone (2′,4′-DHC, purity HPLC≥98%, Cat. No. AB151736) was purchased from abcr GmbH (Karlsruhe, Germany). Isobavachalcone (IBC), 4′-hydroxy-2′6′-dimethoxychalcone (HMC), 2-trifluoromethyl-2′-methoxychalcone (TFM) and Hydroxysafflor yellow A (HYA) were also tested.
# Cell culture. THP-1 cells were cultured in RPMI 1640 culture medium (Gibco) supplemented with 10% fetal bovine serum (FBS; Gibco, UK.), 0.05 mM 2-mercaptoethanol, and 1% penicillin/streptomycin. Cells were used in exponential growth phase, with culture medium being replaced with fresh medium 1 day prior to the experiment. The following day, THP-1 cells were plated into 24-well culture plates with a cell density about 800,000 cells/mL and 2 mL per well. 10 ng/mL LPS was used to stimulate the THP-1 cells. RPMI 1640 medium containing 10% FBS and 1% P/S was used as a normal control (NC). 10 mM stock solutions of compounds in DMSO were diluted to 20 μM with complete culture medium just before use. Experiments were performed in quadruplicate.
# Enzyme linked immune-sorbent assay (ELISA). At 24 hours, after centrifugation at 300 g for 10 min., 0.5 mL of supernatant was collected and stored at −80° C. until use. IL-23 levels were determined in culture supernatants as described in Example 1.
# IL-23 [2] = assay: IL-23 gene expression in RA-patient synovial cells (RT-qPCR); assay type: cell-based, human; conditions: 2 h
# Description: Synovial fluid was freshly collected from 20 patients with rheumatoid arthritis (RA) by arthrocentesis. At two hours after treatment or not with 2,4-D, RA-patient synovial cells were directly lysed using TRIzol reagent (Invitrogen, USA) followed by RNA extraction according to the manufacturer's protocol. Finally, RNA was dissolved in 10 μL DEPC-treated water, quantified on a NanoDrop 2000 spectrophotometer (Thermo Scientific Inc., USA), and reverse-transcribed using the Super Script III First-Strand Synthesis System for RT-PCR kit (Thermo Scientific, USA) according to the manufacturer's protocol. PCR was performed in duplicate using SYBR Green qPCR master mix (Takara Biomedical Technology Co., Ltd, Dalian, China) on an ABI 7500 Real-Time PCR System (Thermo, USA). The cycling program was as follows: denaturation at 95° C. for 15 s, 40 cycles of 95° C. for 15 s and extension at 60° C. for 60 s, followed by melt curve generation. The ΔΔCT method was used to quantify relative mRNA levels as described in Example 1 above. The primer sequences specific for human IL-17 genes (hu-IL-17 Forward: 5′-[…]-3′; hu-IL-17 Reverse: 5′-GGCACTTTGCCTCCCAGAT-3′) (SEQ ID NOs 8 and 9, respectively) and IL-23 (see Example 1, above) were used.
# Solubility in water = assay type: physicochemical
smiles,measurement,setting,value
"COc1cc(O)c(OC)c(O)c1C(=O)/C=C/c1ccccc1 [2,4-D, 2′,4′-dihydroxy-3′,6′-dimethoxychalcone]",IL-23 gene expression,IL-23 gene (IL-23p19),strongly inhibited
same,"inhibition of IL-23, superiority over remaining compounds",IL-23 [1],"7,5- to 18 fold"
same,decrease of IL-23 expression,IL-23 [2]; 1 μg/ml,8 fold
same,inhibition of IL-23 expression,IL-23 [2]; 5 μg/ml,65 fold
same,solubility in water,Solubility in water,Low solubility
